Data reported in US10981873B2 (priority 2016, dated 2021).

What was measured:
N2a cells = settings: cited from earlier work
[1] = molecular target: Botulinum toxin type A endopeptidase (BoNT/A-LC) (Clostridium botulinum, UniProt P0DPI0); type: biochemical
[2] = tested on: Botulinum toxin type A (BoNT/A); set-up: species or system Balb/c mice; settings: mouse, in vivo
[3] = molecular target: Botulinum toxin type B endopeptidase (BoNT/B-LC) (Clostridium botulinum, UniProt P10844); type: biochemical
Botulinum toxin type B endopeptidase (BoNT/B-LC), sequence (P10844 2-441 limits assumed): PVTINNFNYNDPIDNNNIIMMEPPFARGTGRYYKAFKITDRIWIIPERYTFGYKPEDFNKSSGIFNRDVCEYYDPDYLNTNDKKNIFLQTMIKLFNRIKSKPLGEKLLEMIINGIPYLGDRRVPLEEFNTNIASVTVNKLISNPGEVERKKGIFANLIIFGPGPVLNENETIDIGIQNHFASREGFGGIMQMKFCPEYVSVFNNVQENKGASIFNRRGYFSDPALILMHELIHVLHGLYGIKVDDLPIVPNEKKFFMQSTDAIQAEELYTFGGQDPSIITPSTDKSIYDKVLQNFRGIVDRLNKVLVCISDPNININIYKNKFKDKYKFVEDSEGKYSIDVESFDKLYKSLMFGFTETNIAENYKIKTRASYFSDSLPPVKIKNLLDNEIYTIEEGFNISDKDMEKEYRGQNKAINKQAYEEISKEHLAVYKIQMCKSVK

[4] = tested on: Botulinum toxin type B (BoNT/B); set-up: species or system Balb/c mice; settings: mouse, in vivo

Botulinum toxin type A endopeptidase (BoNT/A-LC), sequence (P0DPI0 2-448 limits assumed): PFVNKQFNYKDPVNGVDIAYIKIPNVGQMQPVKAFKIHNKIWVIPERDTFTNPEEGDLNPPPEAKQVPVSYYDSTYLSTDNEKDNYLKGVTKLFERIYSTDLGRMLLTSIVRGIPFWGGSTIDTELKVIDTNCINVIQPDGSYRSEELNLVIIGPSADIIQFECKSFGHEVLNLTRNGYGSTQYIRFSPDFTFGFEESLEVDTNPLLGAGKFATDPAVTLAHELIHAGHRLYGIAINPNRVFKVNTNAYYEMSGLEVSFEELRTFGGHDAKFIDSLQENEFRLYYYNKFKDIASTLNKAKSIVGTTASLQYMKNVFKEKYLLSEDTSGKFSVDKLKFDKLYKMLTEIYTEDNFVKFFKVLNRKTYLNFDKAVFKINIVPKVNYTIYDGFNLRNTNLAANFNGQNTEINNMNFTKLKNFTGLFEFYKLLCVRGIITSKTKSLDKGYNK

In the case of CCOc1ccc(C(Nc2cccnc2)c2cc(Cl)c3cccnc3c2O)cc1 (centres unmarked) [CB7969312], the “neutralization of toxicity of botulinum toxin type A to N2a cells” value (N2a cells) is listed as “effectively neutralizes the toxicity”.

For COc1ccc(Cl)cc1NC(=O)CS(=O)(=O)c1cc(C(=O)O)ccn1 [Compound 2a, 2-((2-((5-chloro-2-methoxyphenyl)amino)-2-oxoethyl)sulfonyl)isonicotinic acid], the Inhibition rate % [1] was 10%, the Survival rate % [2] was 0% and the Inhibition rate % [3] was 0%. It also gave a Survival rate % [4] of 0%.

O=C(CS(=O)(=O)c1ncccc1C(=O)O)Nc1cc(Cl)ccc1Oc1ccccc1 [Compound 2b, 2-((2-((5-chloro-2-phenoxyphenyl)amino)-2-oxoethyl)sulfonyl)nicotinic acid] gave an Inhibition rate % [1] of 5%, a Survival rate % [2] of 0% and an Inhibition rate % [3] of 0%. For the same molecule, the Survival rate % [4] was 0%.

For COc1ccc(Cl)cc1NC(=O)C[S+]([O-])c1ncccc1C(=O)O (centres unmarked) [Compound 2c, 2-((2-((5-chloro-2-methoxyphenyl)amino)-2-oxoethyl)sulfinyl)nicotinic acid], the Inhibition rate % [1] was 60.0%, the Survival rate % [2] was 100% and the Inhibition rate % [3] was 35%. The Survival rate % [4] was 20%.

COc1ccc(Cl)cc1NC(=O)COc1ncccc1C(=O)O [Compound 6a, 2-(2-((5-chloro-2-methoxyphenyl)amino)-2-oxoethoxy)nicotinic acid] gave an Inhibition rate % [1] of 0%, a Survival rate % [2] of 60% and an Inhibition rate % [3] of 80%. It also gave a Survival rate % [4] of 20%.
